Like-named read-outs stand apart in the source and are kept apart here. Blank lines part the entries; values can stand above or below the compound they belong to. No end group written: not given here.
How the values were obtained:
Y2R [1] = molecular target: T1, Y2R (Homo sapiens, UniProt P49146); format: binding; settings: high- and low-affinity state
T1 sequence (P49146 1-381): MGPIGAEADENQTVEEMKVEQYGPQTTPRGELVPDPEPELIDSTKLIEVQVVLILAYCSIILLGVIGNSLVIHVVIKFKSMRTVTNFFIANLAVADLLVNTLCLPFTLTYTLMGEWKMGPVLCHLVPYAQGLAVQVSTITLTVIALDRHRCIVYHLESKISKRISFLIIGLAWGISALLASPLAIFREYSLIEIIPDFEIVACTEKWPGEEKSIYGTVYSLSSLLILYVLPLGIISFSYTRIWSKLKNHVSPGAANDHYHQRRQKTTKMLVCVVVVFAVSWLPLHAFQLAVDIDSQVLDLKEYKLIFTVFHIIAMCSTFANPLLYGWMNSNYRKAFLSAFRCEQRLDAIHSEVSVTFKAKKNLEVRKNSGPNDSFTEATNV

[2] = molecular target: Nluc-Y1R, wild type (human) (UniProt P25929); test: FRET or BRET
Sequence of Nluc-Y1R, wild type (human) (P25929 whole entry): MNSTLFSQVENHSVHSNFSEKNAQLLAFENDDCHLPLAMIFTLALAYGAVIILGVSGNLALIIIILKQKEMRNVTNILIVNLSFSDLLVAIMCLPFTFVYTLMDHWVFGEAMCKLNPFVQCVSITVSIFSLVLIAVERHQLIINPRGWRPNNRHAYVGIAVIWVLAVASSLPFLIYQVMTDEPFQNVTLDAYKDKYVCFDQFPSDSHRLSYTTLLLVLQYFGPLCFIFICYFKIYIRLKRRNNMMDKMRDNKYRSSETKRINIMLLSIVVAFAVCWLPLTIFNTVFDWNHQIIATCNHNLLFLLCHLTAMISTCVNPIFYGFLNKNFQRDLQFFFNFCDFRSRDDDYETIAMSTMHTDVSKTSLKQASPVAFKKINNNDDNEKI

[3] = molecular target: Nluc-Y4R, wild type (human) (UniProt P50391); test: FRET or BRET
Sequence of Nluc-Y4R, wild type (human) (P50391 whole entry): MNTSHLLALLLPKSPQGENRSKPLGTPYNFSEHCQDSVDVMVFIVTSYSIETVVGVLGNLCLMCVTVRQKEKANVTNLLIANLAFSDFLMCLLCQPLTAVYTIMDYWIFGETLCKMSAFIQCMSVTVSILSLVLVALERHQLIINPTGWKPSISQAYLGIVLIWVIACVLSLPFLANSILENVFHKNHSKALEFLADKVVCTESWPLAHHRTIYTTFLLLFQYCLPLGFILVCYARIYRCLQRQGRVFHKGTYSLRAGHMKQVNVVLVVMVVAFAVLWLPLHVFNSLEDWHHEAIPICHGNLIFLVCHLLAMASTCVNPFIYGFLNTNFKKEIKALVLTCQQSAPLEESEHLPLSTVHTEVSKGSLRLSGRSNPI

Nluc-Y4R Q^5.46A (human) = Nluc-Y4R Q^5.46A (human) (UniProt P50391); test: FRET or BRET
Sequence of Nluc-Y4R Q^5.46A (human) (P50391 whole entry): as above

[4] = molecular target: Nluc-Y4R, wild type (human) (UniProt P50391); test: FRET or BRET; remark: listed apart in the source
Y2R [5] = settings: cited from earlier work
Y1R = settings: cited from earlier work
Y4R [6] = settings: cited from earlier work
Y4R [7] = settings: cited from earlier work; remark: listed apart in the source

affinity (Ki) in both states (Y2R [1]): essentially the same affinity
Compound: CCN(CC)C(=O)C(c1ccccc1)N1CCN(c2ccc(NC(=O)c3ccccc3-c3cccnc3)cc2F)CC1 (stereo not drawn) [JNJ-31020028]

KD,2 (low-affinity state) [2]: 126 nM
Compound: K18(TAMRA)-NPY (peptide)

KD,1 (high-affinity state) [3]: 26 nM
fold reduction of affinity against wild-type Y4R (Nluc-Y4R Q^5.46A (human)): 100 fold
KD,1 (high-affinity state) [4]: 18 nM
Compound: K22(TAMRA),Nle17,30-PP (peptide)

Compound: NPY mutant T32A
binding affinity (Y2R [5]): loss of binding affinity
binding affinity (Y1R; Y1R): loss of binding affinity
binding affinity (Y4R [6]): loss of binding affinity

Compound: NPY(2–36): truncated NPY analog
reduction of affinity and activity, respectively (Y1R; Y1R): more than 50 fold

Compound: NPY(3–36): N-terminally truncated NPY analog
affinity (Y2R [5]): subnanomolar affinity
reduction of affinity and activity, respectively (Y1R; Y1R): more than 50 fold

Compound: NPY(13–36): N-terminally truncated NPY analog
affinity (Y2R [5]): subnanomolar affinity

Compound: NPY(18–36): N-terminally truncated NPY analog
affinity (Y2R [5]): subnanomolar affinity

Compound: NPY(22–36): N-terminally truncated NPY analog
affinity (Y2R [5]): subnanomolar affinity

Compound: PP(2–36): N-terminally truncated PP (PLEPVYPGDNATPEQMAQYAADLRRYINMLTRPRY; ends and bridges not checked; UniProt P01298 31-65, looked up, fragment)
functional impairment (Y4R [7]): limited functional impairment

Compound: PYY: 36-residue C-terminally amidated neuropeptide
binding (Y1R; Y1R F286A): marked loss

Compound: Q34G variant of NPY
loss of binding affinity compared to NPY (Y1R; Y1R): 15 fold

Compound: Q34P-substituted analog of NPY
binding (Y2R [5]): not tolerated
affinity (Y1R; Y1R): wild-type affinity
binding affinity (Y1R; Y1R, exchange of Q34 by proline): unchanged binding affinity
binding (Y4R [6]): improved binding
